From patent US20260008758A1, “LINEAR DIPEPTIDYL PEPTIDASE 1 INHIBITORS AND USES THEREOF” (Insmed Incorporated, priority 2024, published 2026)

Experiments:
human DPP1 enzyme = human DPP1 enzyme (Homo sapiens (Human), UniProt P53634); experiment: Human DPP1 enzyme IC50 assay; assay type: biochemical; details: recombinant human DPP1, H-Gly-Arg-AMC substrate 400 μM
How it was run: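 Fluorogenic readout (350/450 nm, every 5 min over 90 min, 37°C) of H-Gly-Arg-AMC cleavage at 400 μM final substrate. Compounds met activated DPP1 first for a 10-min 37°C pre-incubation in MES buffer pH 6.0 with DTT, 1% DMSO final. Four-parameter sigmoidal fit gave IC50.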

DPP1 in HL-60 cells = DPP1 in HL-60 cells (Homo sapiens (Human), UniProt P53634); experiment: DPP1 Cell IC50 assay; assay type: cell-based; details: H-Gly-Phe-AFC substrate, 60 min pre-incubation
Description: Media was changed every three to four days and cells were not allowed to exceed 1×10^6 cells per mL. Prior to assay, cells were collected by centrifugation at 500 rcf for 3 minutes, resuspended in PBS and counted. Cells were diluted in PBS to a concentration of 5×10^5 live cells per mL and transferred to black 96-well plates for assay, 60 μL per well. Test articles were diluted in PBS plus 0.5% DMSO, and 20 μL was added to each assay well. Compound was allowed to pre-incubate with cells with gentle shaking at 100 rpm for 60 minutes at 37° C. in a cell culture incubator maintained at 5% CO2, after which 20 μL of 500 μM H-Gly-Phe-AFC substrate (MP Biomedicals; Solon, OH) was added to each well. Plates were returned to the incubator with shaking at 100 rpm for 30 minutes, after which fluorescence was measured at Excitation/Emission 400/505 nm. % Inhibition was calculated from RFU values compared to control cell wells that received only PBS plus 0.5% DMSO. IC50 values for each compound were calculated via the XLFit (IDBS Version 5.3.1.3) Add-On to Microsoft Excel using the four parameter fit equation y=(A+((B-A)/(1+((C/x)^D)))), which appears as equation number 205 (4 Parameter Logistic Model or Sigmoidal Dose-Response Model) in XLFit.

Chain of DPP1 in HL-60 cells (P53634 25-134): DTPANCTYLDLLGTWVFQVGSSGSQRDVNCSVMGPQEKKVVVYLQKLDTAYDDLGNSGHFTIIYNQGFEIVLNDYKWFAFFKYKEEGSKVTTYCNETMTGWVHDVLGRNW
Chain of DPP1 in HL-60 cells (P53634 231-394): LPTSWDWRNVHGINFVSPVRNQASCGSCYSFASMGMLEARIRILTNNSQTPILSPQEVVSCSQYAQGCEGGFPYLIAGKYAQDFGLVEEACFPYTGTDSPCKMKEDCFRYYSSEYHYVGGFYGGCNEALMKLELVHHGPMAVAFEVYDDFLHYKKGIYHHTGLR
Chain of DPP1 in HL-60 cells (P53634 395-463): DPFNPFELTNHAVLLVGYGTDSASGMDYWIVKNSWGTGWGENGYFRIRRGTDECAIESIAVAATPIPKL
Chain of human DPP1 enzyme (P53634 25-134): as the sequence (P53634 25-134) above
Chain of human DPP1 enzyme (P53634 231-394): as the sequence (P53634 231-394) above
Chain of human DPP1 enzyme (P53634 395-463): as the sequence (P53634 395-463) above

## Cn1c(=O)oc2ccc(-c3ccc(C[C@@H](C#N)NC(=O)[C@H](N)[C@@H]4CCCO4)cc3)cc21 [Compound 213, (2R)-2-amino-N-[(1S)-1-cyano-2-[4-(3-methyl-2-oxo-1,3-benzoxazol-5-yl)phenyl]ethyl]-2-[(2S)-oxolan-2-yl]acetamide]
Human DPP1 enzyme
  IC50: ≥ 15 nM
DPP1 in HL-60 cells
  IC50: ≥ 2.5 nM

## Cn1c(=O)oc2ccc(-c3ccc(C[C@@H](C#N)NC(=O)[C@@H](N)Cc4cn[nH]c4)cc3)cc21 [Compound 214, (2S)-2-amino-N-[(1S)-1-cyano-2-[4-(3-methyl-2-oxo-1,3-benzoxazol-5-yl)phenyl]ethyl]-3-(1H-pyrazol-4-yl)propanamide]
Human DPP1 enzyme
  IC50: ≥ 15 nM
DPP1 in HL-60 cells
  IC50: ≥ 2.5 nM

## Cn1c(=O)oc2ccc(-c3ccc(C[C@@H](C#N)NC(=O)[C@H](N)Cc4c[nH]cn4)cc3)cc21 [Compound 215, (2R)-2-amino-N-[(1S)-1-cyano-2-[4-(3-methyl-2-oxo-1,3-benzoxazol-5-yl)phenyl]ethyl]-3-(1H-imidazol-4-yl)propanamide]
Human DPP1 enzyme
  IC50: ≥ 15 nM
DPP1 in HL-60 cells
  IC50: ≥ 2.5 nM

## Cn1c(=O)oc2ccc(-c3ccc(C[C@@H](C#N)NC(=O)C(N)Cc4ncsc4Cl)cc3)cc21 (stereo partly drawn) [Compound 218, 2-amino-3-(5-chloro-1,3-thiazol-4-yl)-N-[(1S)-1-cyano-2-[4-(3-methyl-2-oxo-1,3-benzoxazol-5-yl)phenyl]ethyl]propanamide]
Human DPP1 enzyme
  IC50: 5 to 15 nM
DPP1 in HL-60 cells
  IC50: ≥ 2.5 nM

## Cn1c(=O)oc2ccc(-c3ccc(C[C@@H](C#N)NC(=O)C(C)(N)C4CCCC4)cc3)cc21 (stereo partly drawn) [Compound 219, 2-amino-N-[(1S)-1-cyano-2-[4-(3-methyl-2-oxo-1,3-benzoxazol-5-yl)phenyl]ethyl]-2-cyclopentylpropanamide]
Human DPP1 enzyme
  IC50: ≤ 5 nM
DPP1 in HL-60 cells
  IC50: 1 to 2.5 nM

## Cn1c(=O)oc2ccc(-c3ccc(C[C@@H](C#N)NC(=O)C(C)(N)C4CCC4)cc3)cc21 (stereo partly drawn) [Compound 220, 2-amino-N-[(1S)-1-cyano-2-[4-(3-methyl-2-oxo-1,3-benzoxazol-5-yl)phenyl]ethyl]-2-cyclobutylpropanamide]
Human DPP1 enzyme
  IC50: ≤ 5 nM
DPP1 in HL-60 cells
  IC50: 1 to 2.5 nM

## Cn1c(=O)oc2ccc(-c3ccc(C[C@@H](C#N)NC(=O)C(N)Cc4cc[nH]n4)cc3)cc21 (stereo partly drawn) [Compound 221, 2-amino-N-[(1S)-1-cyano-2-[4-(3-methyl-2-oxo-1,3-benzoxazol-5-yl)phenyl]ethyl]-3-(1H-pyrazol-3-yl)propanamide]
Human DPP1 enzyme
  IC50: ≤ 5 nM
DPP1 in HL-60 cells
  IC50: ≥ 2.5 nM

## Cn1c(=O)oc2ccc(-c3ccc(C[C@@H](C#N)NC(=O)C4(N)CCCC45CC5)cc3)cc21 (stereo partly drawn) [Compound 222, 4-amino-N-[(1S)-1-cyano-2-[4-(3-methyl-2-oxo-1,3-benzoxazol-5-yl)phenyl]ethyl]spiro[2.4]heptane-4-carboxamide]
Human DPP1 enzyme
  IC50: ≤ 5 nM
DPP1 in HL-60 cells
  IC50: 1 to 2.5 nM

## Cn1c(=O)oc2ccc(-c3ccc(C[C@@H](C#N)NC(=O)C(N)Cc4ccon4)cc3)cc21 (stereo partly drawn) [Compound 231, 2-amino-N-[(1S)-1-cyano-2-[4-(3-methyl-2-oxo-1,3-benzoxazol-5-yl)phenyl]ethyl]-3-(1,2-oxazol-3-yl)propanamide]
Human DPP1 enzyme
  IC50: ≤ 5 nM
DPP1 in HL-60 cells
  IC50: ≥ 2.5 nM

## C[C@@H](NCc1cccs1)C(=O)N[C@H](C#N)Cc1ccc(-c2ccc3oc(=O)n(C)c3c2)cc1 [Compound 232, (2R)—N-[(1S)-1-cyano-2-[4-(3-methyl-2-oxo-1,3-benzoxazol-5-yl)phenyl]ethyl]-2-[(thiophen-2-ylmethyl)amino]propanamide]
Human DPP1 enzyme
  IC50: ≥ 15 nM
DPP1 in HL-60 cells
  IC50: ≥ 2.5 nM

## N#Cc1ccc(-c2ccc(C[C@H](C#N)NC(=O)C3(N)CCOCC3)c(I)c2)cc1 [Compound 249, 4-amino-N-[(1R)-1-cyano-2-{4′-cyano-3-iodo-[1,1′-biphenyl]-4-yl}ethyl]oxane-4-carboxamide]
Human DPP1 enzyme
  IC50: ≥ 15 nM
DPP1 in HL-60 cells
  IC50: ≥ 2.5 nM

## Cn1ccc(CC(N)C(=O)N[C@H](C#N)Cc2ccc(-c3ccc4oc(=O)n(C)c4c3)cc2)c1 (stereo partly drawn) [Compound 254, 2-amino-N-[(1S)-1-cyano-2-[4-(3-methyl-2-oxo-1,3-benzoxazol-5-yl)phenyl]ethyl]-3-(1-methylpyrrol-3-yl)propanamide]
Human DPP1 enzyme
  IC50: 5 to 15 nM
DPP1 in HL-60 cells
  IC50: ≥ 2.5 nM

## COCCN(C)CCn1c(=O)oc2ccc(-c3ccc(C[C@@H](C#N)NC(=O)[C@@](C)(N)C4CCCC4)cc3)cc21 [Compound 258A, (2S)-2-amino-N-[(1S)-1-cyano-2-[4-(3-{2-[(2-methoxyethyl)(methyl)amino]ethyl}-2-oxo-1,3-benzoxazol-5-yl)phenyl]ethyl]-2-cyclopentylpropanamide]
Human DPP1 enzyme
  IC50: ≥ 15 nM
DPP1 in HL-60 cells
  IC50: ≥ 2.5 nM

## COCCN(C)CCn1c(=O)oc2ccc(-c3ccc(C[C@@H](C#N)NC(=O)[C@](C)(N)C4CCCC4)cc3)cc21 [Compound 258B, (2R)-2-amino-N-[(1S)-1-cyano-2-[4-(3-{2-[(2-methoxyethyl)(methyl)amino]ethyl}-2-oxo-1,3-benzoxazol-5-yl)phenyl]ethyl]-2-cyclopentylpropanamide]
Human DPP1 enzyme
  IC50: ≤ 5 nM
DPP1 in HL-60 cells
  IC50: 1 to 2.5 nM

## CCN1C(=O)Cc2ccc(-c3ccc(C[C@@H](C#N)NC(=O)[C@@](C)(N)C4CCCC4)cc3)cc21 [Compound 259A, (2S)-2-amino-N-[(1S)-1-cyano-2-[4-(1-ethyl-2-oxo-3H-indol-6-yl)phenyl]ethyl]-2-cyclopentylpropanamide]
Human DPP1 enzyme
  IC50: ≤ 5 nM
DPP1 in HL-60 cells
  IC50: 1 to 2.5 nM

## CCN1C(=O)Cc2ccc(-c3ccc(C[C@@H](C#N)NC(=O)[C@@](C)(N)C4CCCC4)c(F)c3)cc21 [Compound 264A, (2S)-2-amino-N-[(1S)-1-cyano-2-[4-(1-ethyl-2-oxo-3H-indol-6-yl)-2-fluorophenyl]ethyl]-2-cyclopentylpropanamide]
Human DPP1 enzyme
  IC50: ≥ 15 nM
DPP1 in HL-60 cells
  IC50: ≥ 2.5 nM

## CCN1C(=O)Cc2ccc(-c3ccc(C[C@@H](C#N)NC(=O)[C@](C)(N)C4CCCC4)c(F)c3)cc21 [Compound 264B, (2R)-2-amino-N-[(1S)-1-cyano-2-[4-(1-ethyl-2-oxo-3H-indol-6-yl)-2-fluorophenyl]ethyl]-2-cyclopentylpropanamide]
Human DPP1 enzyme
  IC50: ≤ 5 nM
DPP1 in HL-60 cells
  IC50: 1 to 2.5 nM

## CCCCOCCn1c(=O)oc2ccc(-c3ccc(C[C@@H](C#N)NC(=O)C(C)(N)C4CCC4)c(F)c3)cc21 (stereo partly drawn) [Compound 267, 2-amino-N-[(1S)-2-{4-[3-(2-butoxyethyl)-2-oxo-1,3-benzoxazol-5-yl]-2-fluorophenyl}-1-cyanoethyl]-2-cyclobutylpropanamide]
Human DPP1 enzyme
  IC50: ≤ 5 nM
DPP1 in HL-60 cells
  IC50: ≥ 2.5 nM

## CN(C)CCn1c(=O)oc2ccc(-c3ccc(C[C@@H](C#N)NC(=O)C(C)(N)C4CCC4)c(F)c3)cc21 (stereo partly drawn) [Compound 268, 2-amino-N-[(1S)-1-cyano-2-(4-{3-[2-(dimethylamino)ethyl]-2-oxo-1,3-benzoxazol-5-yl}-2-fluorophenyl)ethyl]-2-cyclobutylpropanamide]
Human DPP1 enzyme
  IC50: ≤ 5 nM
DPP1 in HL-60 cells
  IC50: 1 to 2.5 nM

## CN1CCC2(CCc3ccc(-c4ccc(C[C@@H](C#N)NC(=O)C(C)(N)C5CCC5)c(F)c4)cc32)CC1 (stereo partly drawn) [Compound 269, 2-amino-N—((S)-1-cyano-2-(2-fluoro-4-(1′-methyl-2,3-dihydrospiro[indene-1,4′-piperidin]-6-yl)phenyl)ethyl)-2-cyclobutylpropanamide]
Human DPP1 enzyme
  IC50: ≤ 5 nM
DPP1 in HL-60 cells
  IC50: ≥ 2.5 nM

## COCCN(C)CCn1c(=O)oc2ccc(-c3ccc(C[C@@H](C#N)NC(=O)[C@@](C)(N)C4CCC4)c(F)c3)cc21 [Compound 270A, (2S)-2-amino-N-[(1S)-1-cyano-2-[2-fluoro-4-(3-{2-[(2-methoxyethyl)(methyl)amino]ethyl}-2-oxo-1,3-benzoxazol-5-yl)phenyl]ethyl]-2-cyclobutylpropanamide]
Human DPP1 enzyme
  IC50: ≥ 15 nM
DPP1 in HL-60 cells
  IC50: ≥ 2.5 nM

## COCCN(C)CCn1c(=O)oc2ccc(-c3ccc(C[C@@H](C#N)NC(=O)[C@](C)(N)C4CCC4)c(F)c3)cc21 [Compound 270B, (2R)-2-amino-N-[(1S)-1-cyano-2-[2-fluoro-4-(3-{2-[(2-methoxyethyl)(methyl)amino]ethyl}-2-oxo-1,3-benzoxazol-5-yl)phenyl]ethyl]-2-cyclobutylpropanamide]
Human DPP1 enzyme
  IC50: ≤ 5 nM
DPP1 in HL-60 cells
  IC50: 1 to 2.5 nM

## Cc1cn2cc(-c3ccc(C[C@@H](C#N)NC(=O)[C@@](C)(N)C4CCC4)c(F)c3)cc2c(C)n1 [Compound 272B, (S)-2-amino-N—((S)-1-cyano-2-(4-(1,3-dimethylpyrrolo[1,2-a]pyrazin-7-yl)-2-fluorophenyl)ethyl)-2-cyclobutylpropanamide]
Human DPP1 enzyme
  IC50: 5 to 15 nM
DPP1 in HL-60 cells
  IC50: 1 to 2.5 nM

## Cn1c(=O)oc2ccc(-c3ccc(C[C@@H](C#N)NC(=O)C4(N)CCCC45CC5)c(F)c3)cc21 (stereo partly drawn) [Compound 273B, (4R)-4-amino-N-[(1S)-1-cyano-2-[2-fluoro-4-(3-methyl-2-oxo-1,3-benzoxazol-5-yl)phenyl]ethyl]spiro[2.4]heptane-4-carboxamide]
Human DPP1 enzyme
  IC50: ≤ 5 nM
DPP1 in HL-60 cells
  IC50: ≤ 1 nM

## CN(C)C[C@H](O)C(=O)N[C@H](C#N)Cc1ccc(-c2ccc3c(n2)CCCN3)cc1F [Compound 276, (2S)—N-[(1S)-1-cyano-2-[2-fluoro-4-(5,6,7,8-tetrahydro-1,5-naphthyridin-2-yl)phenyl]ethyl]-3-(dimethylamino)-2-hydroxypropanamide]
Human DPP1 enzyme
  IC50: ≥ 15 nM
DPP1 in HL-60 cells
  IC50: ≥ 2.5 nM
